{"source": "patent US6353019B1", "about": "“Macrocyclic lactones, compositions, and methods of use” (United States of America as represented by the Department …, priority 1997, dated 2002)", "origin": "cited, not measured here", "conditions": "reported by Suzumure et al., Tetrahedron Lett. 1997; cited from earlier work", "data": [{"substance": "lobatamide A", "values": [{"measurement": "antifungal activity", "result": "weak antifungal activity"}]}]}
